Results: publication PMC10655131 (Journal of medicinal chemistry, 2021)

Key:
[1] = tested on: recombinant HIV-1 RT; conditions: read-out: IC50 (Anti-HIV RT enzyme inhibition activity); mean ± SD, n = 3; cited from earlier work
[2] = tested on: recombinant HIV-1 RT; assay: colorimetric Reverse Transcriptase Assay; type: biochemical
[3] = tested on: HIV-1HXB2; type: cell-based; conditions: antiviral EC50 relative to best inhibitor (NBD-14189)
[4] = tested on: TZM-bl cells; conditions: read-out: CC50 (cytotoxicity), XTT, three days; cited from earlier work

In the case of CC1(C)CC(NC(=O)C(=O)Nc2ccc(Cl)cc2)CC(C)(C)N1 [NBD-556], the IC50 [1] is listed as over 200 µM.
In the case of NC[C@@H](NC(=O)c1ccc(-c2ccc(Cl)c(F)c2)[nH]1)c1ncc(CO)s1 [NBD-14075], the “increase in the IC50 value” ([2]; 075 vs. 189 and 270) is reported as ~ 10 fold.
In the case of NC[C@H](NC(=O)c1ccc(-c2ccc(C(F)(F)F)cc2)[nH]1)c1nc(CO)cs1 [NBD-14189], the “Fold-change from best inhibitor (IC50)” value ([2]; RT IC50 relative to best inhibitor (NBD-14189)) is reported as 1 and the “Fold-change from best inhibitor (EC50)” value [3] is reported as 1.
For NC[C@@H](NC(=O)c1ccc(-c2ccc(C(F)(F)F)cn2)[nH]1)c1ncc(C(O)CO)s1 (some centres unmarked) [NBD-14306], the CC50 [4] is listed as over 113 µM.
